Experiments:
PKMYT1 = target: T1, PKMYT1 (Homo sapiens, UniProt Q99640); assay: PKMYT1 enzyme inhibition assay (LanthaScreen Eu kinase binding method); conditions: mean of two separate experiments
T1 sequence (Q99640 1-499): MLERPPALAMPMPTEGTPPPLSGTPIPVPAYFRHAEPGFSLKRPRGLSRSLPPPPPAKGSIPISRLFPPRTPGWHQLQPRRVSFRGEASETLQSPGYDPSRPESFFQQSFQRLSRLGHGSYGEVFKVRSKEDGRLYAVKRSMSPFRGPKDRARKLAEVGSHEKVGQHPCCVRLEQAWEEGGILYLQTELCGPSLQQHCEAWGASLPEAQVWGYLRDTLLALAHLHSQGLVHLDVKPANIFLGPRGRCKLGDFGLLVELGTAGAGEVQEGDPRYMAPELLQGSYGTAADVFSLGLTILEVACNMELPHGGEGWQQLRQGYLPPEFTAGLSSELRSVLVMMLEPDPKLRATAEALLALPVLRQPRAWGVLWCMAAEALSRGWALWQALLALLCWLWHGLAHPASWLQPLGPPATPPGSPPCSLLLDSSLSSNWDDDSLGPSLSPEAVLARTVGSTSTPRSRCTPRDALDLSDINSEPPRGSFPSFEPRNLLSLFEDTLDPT
Description: The PKMYT1 kinase assay was conducted with the LanthaScreen™ Eu kinase binding method, as provided by Thermo Fisher Scientific (Waltham, MA, USA). Initially, compounds were prepared at a concentration of 4 mM in DMSO and subsequently diluted to various concentrations in 1X buffer. […] The plate was then incubated in the dark at 25 °C for 1 h, and fluorescence signals were recorded at 665 nm and 615 nm.

OVCAR3 cells = assay: Cell proliferation assay (CCK-8), OVCAR3; assay type: cell-based; conditions: for IC50: Homo sapiens, OVCAR-3, 120 h, CCNE1-amplified ovarian cancer cells, 5-day incubation, mean ± SD, n = 3
Description: (§1) HCC1569 and OVCAR3 cells (2 × 10^3/well) were seeded in 96-well plates and cultured for 24 h at 37 °C, 5% CO2. Compounds at varying concentrations were added, followed by 5-day incubation. Cell viability was assessed using Cell Counting Kit-8 (CCK-8) with absorbance measurement at 450 nm. HCC1569 (BNCC341698) was purchased from BNCC and OVCAR3 (CL-0178) was purchased from Procell.

HCC1569 cells = assay: Cell proliferation assay (CCK-8), HCC1569; assay type: cell-based; conditions: for IC50: Homo sapiens, HCC1569, 120 h, CCNE1-amplified breast cancer cells, 5-day incubation, mean ± SD, n = 3
Description: as §1

BEAS-2B cells = assay: Anti-proliferative activity in normal lung epithelial cells BEAS-2B; assay type: cell-based; conditions: Homo sapiens, BEAS-2B; lung epithelial cells; mean ± SD, n = 3
A549 cells = assay: Anti-proliferative activity in low-expressing CCNE1 cells A549; assay type: cell-based; conditions: Homo sapiens, A549; lung cancer cells, low CCNE1 expression; mean ± SD, n = 3

In the case of `Cc1ccc(O)c(C)c1NC(=O)c1cnc(Nc2ccccc2)nc1` [Compound M1], the IC50 (PKMYT1) is reported as 220 nM.
For `Cc1ccc(O)c(C)c1NC(=O)c1cnc(Nc2ccccc2)nc1N` [MY-1, 4-amino-2-(phenylamino)-N-(3-hydroxy-2,6-dimethylphenyl)pyrimidine-5-carboxamide], the IC50 (PKMYT1) was 26 nM.
`Cc1ccc(O)c(C)c1NC(=O)c1cnc(Nc2ccccc2Cl)nc1N` [MY-2, 4-amino-2-((2-chlorophenyl)amino)-N-(3-hydroxy-2,6-dimethylphenyl)pyrimidine-5-carboxamide] was tested, and the IC50 (PKMYT1) was 150 nM.
In the case of `Cc1ccc(O)c(C)c1NC(=O)c1cnc(Nc2cccc(Cl)c2)nc1N` [MY-3, 4-amino-2-((3-chlorophenyl)amino)-N-(3-hydroxy-2,6-dimethylphenyl)pyrimidine-5-carboxamide], the IC50 (PKMYT1) is reported as 17 nM.
`Cc1ccc(O)c(C)c1NC(=O)c1cnc(Nc2ccc(Cl)cc2)nc1N` [MY-4, 4-amino-2-((4-chlorophenyl)amino)-N-(3-hydroxy-2,6-dimethylphenyl)] gave an IC50 (PKMYT1) of 16 nM.
`Cc1ccc(O)c(C)c1NC(=O)c1cnc(Nc2ccc(F)cc2)nc1N` [MY-5, 4-amino-2-((4-fluorophenyl)amino)-N-(3-hydroxy-2,6-dimethylphenyl)pyrimidine-5-carboxamide] was tested, and the IC50 (PKMYT1) was 20 nM.
Work on `Cc1ccc(O)c(C)c1NC(=O)c1cnc(Nc2ccc(Br)cc2)nc1N` [MY-6, 4-amino-2-((4-bromophenyl)amino)-N-(3-hydroxy-2,6-dimethylphenyl)pyrimidine-5-carboxamide] yielded an IC50 (PKMYT1) of 36 nM.
Work on `Cc1ccc(Nc2ncc(C(=O)Nc3c(C)ccc(O)c3C)c(N)n2)cc1` [MY-7, 4-amino-2-(p-tolylamino)-N-(3-hydroxy-2,6-dimethylphenyl)pyrimidine-5-carboxamide] yielded an IC50 (PKMYT1) of 28 nM.
In the case of `Cc1ccc(O)c(C)c1NC(=O)c1cnc(Nc2ccc(C(C)C)cc2)nc1N` [MY-8, 4-amino-2-((4-isopropylphenyl)amino)-N-(3-hydroxy-2,6-dimethylphenyl)pyrimidine-5-carboxamide], the IC50 (PKMYT1) is reported as 46 nM.
`Cc1ccc(O)c(C)c1NC(=O)c1cnc(Nc2ccc(-c3ccccc3)cc2)nc1N` [MY-9, 4-amino-2-([1,1′-biphenyl]-4-ylamino)-N-(3-hydroxy-2,6-dimethylphenyl)pyrimidine-5-carboxamide] gave an IC50 (PKMYT1) of 32 nM.
Work on `Cc1ccc(O)c(C)c1NC(=O)c1cnc(Nc2ccc(N3CCOCC3)cc2)nc1N` [MY-10, 4-amino-2-((4-morpholinophenyl)amino)-N-(3-hydroxy-2,6-dimethylphenyl)pyrimidine-5-carboxamide] yielded an IC50 (OVCAR3 cells) of 810 ± 60 nM, an IC50 (PKMYT1) of 8.6 nM and an IC50 (HCC1569 cells) of 2950 ± 320 nM.
`Cc1ccc(O)c(C)c1NC(=O)c1cnc(Nc2ccc(N3CCN(C)CC3)cc2)nc1N` [MY-11, 4-amino-2-((4-(4-methylpiperazin-1-yl)phenyl)amino)-N-(3-hydroxy-2,6-dimethylphenyl)pyrimidine-5-carboxamide] showed an IC50 (OVCAR3 cells) of 2120 ± 330 nM, an IC50 (PKMYT1) of 7.1 nM and an IC50 (HCC1569 cells) of 3560 ± 590 nM.
`Cc1ccc(O)c(C)c1NC(=O)c1cnc(Nc2ccc([N+](=O)[O-])cc2)nc1N` [MY-12, 4-amino-2-((4-nitrophenyl)amino)-N-(3-hydroxy-2,6-dimethylphenyl)pyrimidine-5-carboxamide] gave an IC50 (OVCAR3 cells) of 740 ± 110 nM, an IC50 (PKMYT1) of 5.1 nM and an IC50 (HCC1569 cells) of 6350 ± 310 nM.
In the case of `Cc1ccc(O)c(C)c1NC(=O)c1cnc(Nc2ccc(P(C)(C)=O)cc2)nc1N` [MY-13, 4-amino-2-((4-(dimethylphosphoryl)phenyl)amino)-N-(3-hydroxy-2,6-dimethylphenyl)pyrimidine-5-carboxamide], the IC50 (OVCAR3 cells) is reported as greater than 8000 nM, the “anti-proliferative activity (in words)” value (OVCAR3 cells; OVCAR3) is reported as “complete loss of activity” and the IC50 (PKMYT1) is reported as 7.9 nM. For the same compound, the “anti-proliferative activity (in words)” value (HCC1569 cells; HCC1569) was “complete loss of activity” and the IC50 (HCC1569 cells) was greater than 8000 nM.
`Cc1ccc(O)c(C)c1NC(=O)c1cnc(Nc2ccc(C(=O)N(C)C)cc2)nc1N` [MY-15, 4-amino-2-((4-(dimethylcarbamoyl)phenyl)amino)-N-(3-hydroxy-2,6-dimethylphenyl)pyrimidine-5-carboxamide] was tested, and the IC50 (PKMYT1) was 15 nM.
`Cc1ccc(O)c(C)c1NC(=O)c1cnc(Nc2ccc(C(=O)N3CCOCC3)cc2)nc1N` [MY-16, 4-amino-2-((4-(morpholine-4-carbonyl)phenyl)amino)-N-(3-hydroxy-2,6-dimethylphenyl)pyrimidine-5-carboxamide] was tested, and the IC50 (OVCAR3 cells) was 1190 ± 90 nM, the IC50 (PKMYT1) was 6.1 nM and the IC50 (HCC1569 cells) was greater than 8000 nM.
With `Cc1ccc(O)c(C)c1NC(=O)c1cnc(Nc2ccc3c(c2)CN(C)C3=O)nc1N` [MY-17, 4-amino-2-((2-methyl-1-oxoisoindolin-5-yl)amino)-N-(3-hydroxy-2,6-dimethylphenyl)pyrimidine-5-carboxamide] the IC50 (OVCAR3 cells) was 980 ± 70 nM, the IC50 (PKMYT1) was 3.3 nM and the IC50 (HCC1569 cells) was greater than 8000 nM.
For `Cc1ccc(O)c(C)c1NC(=O)c1cnc(Nc2ccc3ccoc3c2)nc1N` [MY-18, 4-amino-2-(benzofuran-6-ylamino)-N-(3-hydroxy-2,6-dimethylphenyl)pyrimidine-5-carboxamide], the IC50 (OVCAR3 cells) was 3310 ± 180 nM, the IC50 (PKMYT1) was 8.5 nM and the IC50 (HCC1569 cells) was 6970 ± 1090 nM.
`Cc1ccc(O)c(C)c1NC(=O)c1cnc(Nc2ccc3ncsc3c2)nc1N` [MY-19, 4-amino-2-(benzo[d]thiazol-6-ylamino)-N-(3-hydroxy-2,6-dimethylphenyl)pyrimidine-5-carboxamide] showed an IC50 (OVCAR3 cells) of 1250 ± 60 nM, an IC50 (PKMYT1) of 3.5 nM and an IC50 (HCC1569 cells) of 3140 ± 280 nM.
In the case of `Cc1ccc(O)c(C)c1NC(=O)c1cnc(Nc2ccc3scnc3c2)nc1N` [MY-20, 4-amino-2-(benzo[d]thiazol-5-ylamino)-N-(3-hydroxy-2,6-dimethylphenyl)pyrimidine-5-carboxamide], the IC50 (OVCAR3 cells) is reported as 600 ± 90 nM, the IC50 (PKMYT1) is reported as 5.7 nM and the IC50 (HCC1569 cells) is reported as 3540 ± 210 nM.
`Cc1ccc(O)c(C)c1NC(=O)c1cnc(Nc2ccc3occc3c2)nc1N` [MY-21, 4-amino-2-(benzofuran-5-ylamino)-N-(3-hydroxy-2,6-dimethylphenyl)pyrimidine-5-carboxamide] was tested, and the IC50 (PKMYT1) was 12 nM.
For `Cc1cc2c(C(N)=O)c(N)n(-c3c(C)ccc(O)c3C)c2nc1C` [RP-6306, reference compound], the IC50 (BEAS-2B cells) was 2600 ± 540 nM, the IC50 (OVCAR3 cells) was 90 ± 10 nM and the IC50 (A549 cells) was 1450 ± 230 nM. It also gave an IC50 (HCC1569 cells) of 110 ± 20 nM.
